“And” between values parts separate entries of the source, which are not always exact repeats. Identical values can stand only once. Marks after values point to notes of the source that are not given here.
Legend:
[1] = quantitative (Q) 1H NMR spectroscopy, proportion of SSA becoming NMR silent (higher-order aggregates); assay type: physicochemical
[2] = tensiometry: critical aggregate concentration (CAC) and surface tension; assay type: physicochemical; conditions: for Surface tension at CAC: H2O/5.0 % EtOH
Method in brief: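 Surface tension measured by tensiometry across increasing self-associating amphiphile concentrations. CAC taken as the concentration beyond which further increase no longer lowers surface tension and higher-order aggregates form instead.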

[3] = system: E. coli NCTC 12923; test: inhibition of bacterial growth, OD600 after 20 h; assay type: cell-based, Escherichia coli; conditions: SSA 5.0 mM, 2.5% ethanol, negative = enhanced growth
[4] = system: A. baumannii ATCC 17978; test: inhibition of bacterial growth, OD600 after 20 h; assay type: cell-based, Acinetobacter baumannii; conditions: SSA 5.0 mM, 2.5% ethanol, negative = enhanced growth
[5] = system: S. aureus ATCC 9144; test: inhibition of bacterial growth, OD600 after 20 h; assay type: cell-based, Staphylococcus aureus; conditions: SSA 5.0 mM, 2.5% ethanol, negative = enhanced growth; for inhibition at 5000 µM: Staphylococcus aureus, ATCC9144, 20 h, read-out: Percentage inhibition of bacterial growth, ATCC 9144 (S. aureus)
[6] = system: E. faecalis NCTC 775; test: inhibition of bacterial growth, OD600 after 20 h; assay type: cell-based, Enterococcus faecalis; conditions: SSA 5.0 mM, 2.5% ethanol, negative = enhanced growth
[7] = system: E. faecium NCTC 12204; test: inhibition of bacterial growth, OD600 after 20 h; assay type: cell-based, Enterococcus faecium; conditions: SSA 5.0 mM, 2.5% ethanol, negative = enhanced growth
[8] = system: P. aeruginosa PAO1; test: inhibition of bacterial growth, OD600 after 20 h; assay type: cell-based, Pseudomonas aeruginosa; conditions: SSA 5.0 mM, 2.5% ethanol, negative = enhanced growth
Procedure: With the self-associative properties of 1–10 established, the antimicrobial activity of these SSAs were determined against a panel of clinically relevant, high-priority pathogens including: P. aeruginosa PAO1; Klebsiella pneumonia (K. pneumoniae) M6; E. coli NCTC 12923; Acinetobacter baumannii (A. baumannii) ATCC 17978; S. aureus ATCC 9144; Enterococcus faecalis (E. faecalis) NCTC 775; and Enterococcus faecium (E. faecium) NCTC 12204. […] However, it should be noted that the SSA stock solution was prepared in a H2O 5% EtOH solution, to ensure that the SSA aggregates formed were in line with those characterised within the scope of the SSA self-association studies.
Section 3: Biological methods
These methods were taken directly from UK Health and Security Office (UKHSA) standard […]
Preparation of Luria Broth media (LB): Yeast extract (5.0 g), tryptone (10.0 g) and sodium chloride (10.0 g) were dissolved in dH₂O (1.0 L) then divided into bottles and autoclaved.
Preparation of Luria Broth (LB) agar plates: Agar (6.0 g) was added to LB (400 mL) and autoclaved. Once cool, the LB agar was poured into sterile petri dishes under sterile conditions and allowed to set. LB plates were stored at 4 °C until use.
Preparation of bacterial plates: Sterile LB agar plates were streaked using streaked using the desired bacteria i) Pseudomonas aeruginosa (P.aeruginosa) PAO1, ii) Klebsiella pneumoniae (K. pneumoniae) M6 iii) E. coli NCTC 12923 and iv) Acinetobacter baumannii (A. baumannii) ATCC 17978 and Gram-positive i) Staphylococcus aureus (S. aureus) ATCC 9144 ii) Enterococcus faecalis (E. faecalis) NCTC 775 and iii) Enterococcus faecium (E. faecium ) NCTC 12204, then incubated at 37 °C overnight.
Preparation of Inoculum: An initial culture was made up by inoculating LB media (5 mL) with a single colony of bacteria under sterile conditions and incubated at 37 °C with shaking overnight. The following day, overnight bacterial cultures were subcultured into fresh LB medium to a starting OD600 of 0.01.
Preparation of 96 well microplate for MIC50: The 1:100 cell suspension (150 µL) was dispensed into individual wells under sterile conditions. SSAs (30 µL) were added to the wells to equal a total volume of 180 µL in the wells. Six repeats of each concentration for each SSA were created each plate. The plates were sealed using parafilm, then incubated at 37 °C in a microplate reader for 20 hours. OD600 endpoint data was used to generate growth curves. […]

| SMILES | (Q) 1H NMR spectroscopy, proportion NMR silent, acid or anion ([1]; 5.6 mM, D2O 5.0% EtOH, 298 K) | (Q) 1H NMR, proportion NMR silent, SSA acid or anion ([1]; ~112 mM, DMSO-d6 1.0% DCM) [%] | CAC ([2]; H2O 5.0% EtOH, 298 K) | ST at CAC ([2]; H2O 5.0% EtOH, 298 K) [mN m^−1] | Surface tension at CAC [2] [mN/m] | Percentage inhibition of bacterial growth, PAO1 (P. aeruginosa) [8] | Percentage inhibition of bacterial growth, NCTC 12923 (E. coli) [3] | Percentage inhibition of bacterial growth, ATCC 17978 (A. baumannii) [4] | Percentage inhibition of bacterial growth, ATCC 9144 (S. aureus) [5] | inhibition at 5000 µM [5] [%] | Percentage inhibition of bacterial growth, NCTC 775 (E. faecalis) [6] | Percentage inhibition of bacterial growth, NCTC 12204 (E. faecium) [7] | further results |
| --- | --- | --- | --- | --- | --- | --- | --- | --- | --- | --- | --- | --- | --- |
| O=C(O)CC[C@H](NC(=O)Nc1ccc(Br)cc1)C(=O)O [SSA 9] | – | – | – | – | – | – | – | – | – | – | – | – | (Q) 1H NMR spectroscopy, proportion NMR silent, acid or anion ([1]; 5.6 mM, D2O 5.0% EtOH, 298 K, listed as 9): 40.9% and 41%; CAC (footnote in place of a value) ([2]; H2O 5.0% EtOH, 298 K): ^c (CAC is >100 mM); ST at the limit of solubility or 100 mM, whichever concentration is lower ([2]; H2O 5.0% EtOH, 298 K): 54 ^d mN m^−1; Surface tension at CAC ([2]; listed as 9): 54.44 mN/m; Percentage inhibition of bacterial growth, NCTC 12923 (E. coli) ([3]; listed as 9): 62.96% and 63%; Percentage inhibition of bacterial growth, ATCC 17978 (A. baumannii) ([4]; listed as 9): -8.08% and −8%; Percentage inhibition of bacterial growth, ATCC 9144 (S. aureus) ([5]; listed as 9): 60.74% and 61%; Percentage inhibition of bacterial growth, NCTC 775 (E. faecalis) ([6]; listed as 9): 20%; Percentage inhibition of bacterial growth, NCTC 12204 (E. faecium) ([7]; listed as 9): 44.44% and 44% |
| O=C(O)CC[C@H](NC(=O)Nc1ccc(C(F)(F)F)cc1)C(=O)O [SSA 1] | 38.5% and 39% | 0 | 19.23 mM and 19 mM | 39 | 38.90 | -28.56% and −29% | 64.03% and 64% | 90.67% and 91% | 99% | 98.7 | 98.79% and 99% | 99.02% and 99% | – |
| O=C(O)CC[C@H](NC(=O)Nc1ccc(C(F)(F)F)cc1)C(=O)O [SSA 2] | 39.8% and ~40% | 0 | 19.84 mM and 20 mM | 37 | 37.13 | -11.25% and −11% | 6.06% and 6% | -23.34% and −23% | 79.71% and 80% | – | 21.86% and 22% | 66.25% and 66% | (Q) 1H NMR spectroscopy, proportion NMR silent, cation ([1]; 5.6 mM, D2O 5.0% EtOH, 298 K): 36.3% and 36%; (Q) 1H NMR, proportion NMR silent, cation ([1]; ~112 mM, DMSO-d6 1.0% DCM): 0% |
| O=C(O)CC[C@@H](NC(=O)Nc1ccc(C(F)(F)F)cc1)C(=O)O [SSA 3] | – | 0 | – | – | – | – | – | – | – | 99.1 | – | – | (Q) 1H NMR spectroscopy, proportion NMR silent, acid or anion ([1]; 5.6 mM, D2O 5.0% EtOH, 298 K, listed as 3): 34%; CAC ([2]; H2O 5.0% EtOH, 298 K, listed as 3): 17.46 mM and 20 mM; Surface tension at CAC ([2]; listed as 3): 38.73 mN/m; Percentage inhibition of bacterial growth, PAO1 (P. aeruginosa) ([8]; listed as 3): -35.71% and −36%; Percentage inhibition of bacterial growth, NCTC 12923 (E. coli) ([3]; listed as 3): 59.91% and 60%; Percentage inhibition of bacterial growth, ATCC 17978 (A. baumannii) ([4]; listed as 3): 94.45% and 94%; Percentage inhibition of bacterial growth, ATCC 9144 (S. aureus) ([5]; listed as 3): 99%; inhibition at 5000 µM ([6]; Enterococcus faecalis, NCTC775, 20 h, read-out: Percentage inhibition of bacterial growth, NCTC 775 (E. faecalis)): 98.8%; Percentage inhibition of bacterial growth, NCTC 775 (E. faecalis) ([6]; listed as 3): 99%; inhibition at 5000 µM ([7]; Enterococcus faecium, NCTC12204, 20 h, read-out: Percentage inhibition of bacterial growth, NCTC 12204 (E. faecium)): 99.4%; Percentage inhibition of bacterial growth, NCTC 12204 (E. faecium) ([7]; listed as 3): 99% |

From publication PMC12645191, “Dicarboxylate and dicarboxylic acid appended supramolecular self-associating amphiphiles as antimicrobial agents against high priority bacterial pathogens” (Organic & Biomolecular Chemistry, 2025)
